{"source": "patent US20030032655A1", "about": "“Heme oxygenase-1 inducers or induction enhancers” (priority 2000, published 2003)", "key": {"[1]": {"system": "HO-1 mRNA", "details": "blood i.c. + compound i.v. 1 mg/kg/min continuously for 2 days; basilar arterial walls, day 2; vs blood i.c.+saline i.v.", "experimental": "The preparation of rat cerebral vasospasm model and the determination of HO-1 mRNA expression level were performed according to a documented method (see The Journal of Clinical Investigation, Vol. 104, No. 1, July 1999).\nEach single hemorrhage model was injected with 0.5 ml autologous arterial blood into its cisterna magna. […] After administration, the level of mRNA expressed in basilar arterial walls was determined on day 2 using a quantitative RT-PCR technique.\nIt is for this reason that the mRNA expression level was determined on day 2.\nAll data were expressed as mean±SEM. The expression level of HO-2 was used as a denominator in calculating the ratio because the expression level of HO-2 was not assumed to change appreciably in this model and therefore, when used as a denominator, would enable changes in HO-1 expression level to be objectively evaluated while ignoring individual differences. […] The data were statistically processed according to variance analysis. A single asterisk (*) denotes a statistically significant difference from “saline i.c.” at p<0.05 level and two asterisks (**) denote a statistically significant difference from “blood i.c.+saline i.v.” at p<0.01 level."}, "[2]": {"system": "delayed cerebral vasospasm", "experimental": "The same model as in Example 1 was used to study changes over time in basilar artery diameter. The determination of basilar artery diameter was performed as described in the above-mentioned reference. That is, the diameter was measured angiographically on days 1 to 7 and expressed as a % change from the original diameter (% change before treatment was set to 0).\nAll data were expressed as mean±SEM.\nThe data was statistically processed such that intragroup comparison was performed by paired t-test and intergroup comparison was performed according to variance analysis."}, "[3]": {"system": "HO-1 protein", "details": "after injection of autologous arterial blood; compound i.v. 2 days; basilar arterial walls, day 2", "excerpt": "The same animal model as in Example 1 was used to study changes in HO-1 protein expression level after the same treatment as shown in Example 1. The changes in protein expression level were detected by Coomassie staining and Western blotting, as described in the abovementioned reference. In this figure, the upper and lower panels show the results of Coomassie staining and Western blotting, respectively. Each of the lanes shown in FIG. 2 has the same definition as the corresponding sample in FIG. 1."}}, "data": [{"smiles": "CC(CNC(=O)c1cccnc1)NC(=O)c1cccnc1", "note": "(stereo not shown) [1,2-bis(nicotinamide)propane]", "values": [{"measurement": "HO-1 mRNA expression level (HO-1/HO-2 ratio)", "setting": "[1]", "result": "significant increase in HO-1 mRNA expression level"}, {"measurement": "delayed cerebral vasospasm (% change in basilar artery diameter)", "setting": "[2]; blood i.c. + compound i.v. continuously for 7 days, angiography days 1 to 7", "result": "significant amelioration of delayed cerebral vasospasm"}, {"measurement": "diameter of cerebral blood vessels in the absence of hemorrhage", "setting": "[2]; saline i.c. + compound i.v. continuously for 7 days", "result": "not affected"}, {"measurement": "HO-1 protein induction", "setting": "[3]", "result": "causes or enhances HO-1 protein induction"}]}]}
